Common to all, as to assay type: cell-based
One assay concerns HCT116. The experiment in a line: Inhibition of cell proliferation, HCT116. As to conditions: Homo sapiens, HCT-116; 72 h treatment; methylene blue or CellTiter-Glo.
Another assay relates to COLO205. The experiment in a line: Inhibition of cell proliferation, COLO205. As to conditions: Homo sapiens, COLO 205; Colon; 72 h; methylene blue or CellTiter-Glo. As to the method:
(§1) II. Inhibition of Cell Proliferation by PLK1 Inhibitors.
(§2) Exponentially growing cell lines of different tumor origins, cultured in appropriate media containing 10% fetal bovine serum at 37° C. in a 5% CO2 incubator were plated in 96 or 384-well plates. Twenty four hours post-plating, cells were treated with different concentrations of test compounds ranging from 20 μM to 0.04 nM. Several wells were left untreated as a control. Seventy two hours post-treatment, cell numbers were determined using different techniques; 100 μl per well of methylene blue (Sigma M9140) (0.5% in 50:50 Ethanol:water), or 10-100 μl per well of CellTiter-Glo (Promega #G7573), depending on well size. For methylene blue staining, stain was incubated at room temperature for 30 minutes before plates were rinsed and dye solubilized in 1% N-lauroyl sarcosine, sodium salt, (Sigma L5125, in PBS). Plates were read on a microplate reader, measuring the OD at 620 nm. For CellTiter-Glo, plates were incubated at room temperature for 15 minutes and the chemiluminescent signal was read on the Victor V or Envison 2100 reader.
(§3) Percent inhibition of cell growth was expressed as percent proliferation relative to 100% proliferation (control). Concentration of test compound that inhibited 50% of cell growth (IC50) was determined by 4 parameter fit of data using XLfit, (value of no cell control was substracted from all samples for background). The data are shown in Table 1 and Table 2 below and represent a compilation of several different experiments each performed using the general parameters outlined above, although minor variations may have been employed in some instances, in Table 1 and Table 2, +=IC50>1 μM; ++=IC50 0.5-1 μM: +++=IC50<0.5 μM.

The next assay concerns HT29. The assay is described as follows: Inhibition of cell proliferation, HT29. As to conditions: Homo sapiens, HT-29; Colon; 72 h; methylene blue or CellTiter-Glo. As to the method: as §1, §2, §3
In general terms: In ATP-based viability assays light output follows the ATP content of the culture.

Another assay concerns MX-1. The experiment in a line: Inhibition of cell proliferation, MX-1. The settings on record: Homo sapiens, MX1; Breast; 72 h; methylene blue or CellTiter-Glo. How it is done:
as §1, §2, §3

In the next assay the test system is SKOV-3. The assay is described as follows: Inhibition of cell proliferation, SKOV-3. As to conditions: Homo sapiens, SK-OV-3; Ovarian; 72 h; methylene blue or CellTiter-Glo. How it is done: as §1, §2, §3
For a further assay, the system named is LNCaP. The assay is described as follows: Inhibition of cell proliferation, LNCaP. The settings on record: Homo sapiens, Prostate, 72 h, methylene blue or CellTiter-Glo. How it is done: as §1, §2
(§4) Percent inhibition of cell growth was expressed as percent proliferation relative to 100% proliferation (control). […]

A further assay deals with H1299. The assay is described as follows: Inhibition of cell proliferation, H1299. As to conditions: Homo sapiens, NCI-H1299; Lung; 72 h; methylene blue or CellTiter-Glo. How it is done:
as §1, §2, §4

For the next assay, the system named is Hela. The experiment in a line: Inhibition of cell proliferation, Hela. The settings on record: Homo sapiens, Cervical, 72 h, methylene blue or CellTiter-Glo. As to the method: as §1, §2, §4
A further assay deals with HN5. The experiment in a line: Inhibition of cell proliferation, HN5. The settings on record: Homo sapiens; Head and neck; Table 2 first HN5 line; 72 h. As to the method:
as §1, §2, §3

A further assay relates to MCF7. The assay is described as follows: Inhibition of cell proliferation, MCF7. As to conditions: Homo sapiens, Breast, 72 h, methylene blue or CellTiter-Glo. How it is done: as §1, §2, §4
The subject of another assay is MDA-MB-468. The experiment in a line: Inhibition of cell proliferation, MDA-MB-468. As to conditions: Homo sapiens, Breast, 72 h, methylene blue or CellTiter-Glo. As to the method: as §1, §2, §4
The subject of another assay is RPMI 8226. The experiment in a line: Inhibition of cell proliferation, RPMI 8226. The settings on record: Homo sapiens, leukemia, 72 h, methylene blue or CellTiter-Glo. How it is done: as §1, §2, §4
Another assay has as its system A549-L. The assay is described as follows: Inhibition of cell proliferation, A549-L. As to conditions: lung; 72 h; methylene blue or CellTiter-Glo. As to the method:
as §1, §2, §3

In another assay the test system is P388. The experiment in a line: Inhibition of cell proliferation, P388. As to conditions: Mouse leukemia, 72 h, methylene blue or CellTiter-Glo. As to the method: as §1, §2, §3

One may read the IC50 as the point on the concentration scale where inhibition reaches its midpoint. As for `C[C@@H](Oc1cc(-n2cnc3cc(-c4cnn(C)c4)ccc32)sc1C(N)=O)c1cccc(OC2CCN(CCS(C)(=O)=O)CC2)c1Cl` [Example 31, 3-({(1R)-1-[2-Chloro-3-({1-[2-(methylsulfonyl)ethyl]-4-piperidinyl}oxy)phenyl]ethyl}oxy)-5-[5-(1-methyl-1H-pyrazol-4-yl)-1H-benzimidazol-1-yl]-2-thiophenecarboxamide], the IC50 in the assay with HCT116 was under 500 nM; with COLO205, under 500 nM; with HT29 it was under 500 nM; with MX-1 it was under 500 nM; with SKOV-3, under 500 nM; in the assay on LNCaP, 500 to 1000 nM. Also, the IC50 in the assay with H1299, in the assay with Hela, in the assay with HN5, in the assay with MCF7, in the assay with MDA-MB-468 and with RPMI 8226 was under 500 nM in each case.
In the case of `C[C@@H](Oc1cc(-n2cnc3cc(-c4cnn(C)c4)ccc32)sc1C(N)=O)c1cccc(OC2CCNCC2)c1Cl` [Example 47, 3-({(1R)-1-[2-Chloro-3-(4-piperidinyloxy)phenyl]ethyl}oxy)-5-[5-(1-methyl-1H-pyrazol-4-yl)-1H-benzimidazol-1-yl]-2-thiophenecarboxamide], the concentration for half-maximal inhibition (IC50) with HCT116, in the assay with A549-L, in the assay on COLO205, with HT29, in the assay with MX-1 and with SKOV-3 was under 500 nM each time. Also, the half-inhibitory concentration (IC50) with P388 was under 500 nM.

Source of the values: patent US20100075960A1 (priority 2006, published 2010).
